Patent US8048862B2, “Macrocyclic inhibitors of hepatitis C virus replication” (priority 2008, dated 2011)
Like-named read-outs stand apart in the source and are kept apart here.

Experiments:
[1] = molecular target: NS3/NS4 complexes (Hepatitis C virus genotype 1a, UniProt P27958); experiment: NS3/NS4 inhibition activity (IC50); format: biochemical
Summary of the method: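 Buffer: 50 mM Tris-HCl (pH 7.5), 10 mM DTT, 25 μM NS4A peptide, 0.6 mM LDAO and 15% glycerol. Assays were run at 23 °C with preformed NS3/NS4 complex, and the compound concentration giving inhibition was derived as an IC50.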

[2] = test system: hepatitis C replicon; experiment: hepatitis C replicon EC50; format: cell-based; settings: Hepatitis C virus; Table 3; hepatitis C replicon; read-out: EC50
Excerpt: NS3-NS4 inhibition activity can be determined using known assay methods.

[3] = test system: hepatitis C virus (HCV RNA levels), chronic hepatitis C genotype 1; experiment: ITMN-191 combination therapy with SOC (PEG-IFN alfa-2a and ribavirin), 14 days, effect on HCV viral load in patients; format: in vivo; settings: for HCV RNA (<43 IU/mL) (%): after 14 days of treatment; for median change in HCV RNA from baseline: 14 days of triple combination therapy
Excerpt: This is a double-blind, placebo-controlled, multicenter study in treatment-naïve patients with chronic hepatitis C genotype 1 infection. All patients receive standard of care (SOC) treatment with PEG-IFN alfa-2a and weight-based ribavirin in accordance with the product labeling. In addition to this standard of care treatment, patients are randomized to receive either ITMN-191 or matching placebo, administered in the fed state, for 14 complete days, and a single dose on Day 15. PEG-IFN alfa-2a and ribavirin is provided from Day 0 and following the completion of study drug treatment on Day 15 through Day 44. No other HCV therapies are permitted prior to Day 44. All patients receive SOC and then are administered a pill containing either ITMN-191 or placebo. The ITMN-191 was administered in the form of its sodium salt.
Patients are admitted to a research facility and initiate PEG-IFN alfa-2a and ribavirin on Day O, Study drug (ITMN-191 or placebo) administration begins on Day 1 and continues to the morning of Day 15, and patients are discharged from the research facility on Day 16. Meals and activity levels are standardized across research facilities. Patients are contacted by telephone on Day 21 and return to the research facility for the Safety Follow-up Visit on Day 28 and the End of Study Visit on Day 44.
Over the course of the study, blood samples are obtained for clinical laboratory analysis and for PK (pharmokinetics) and VK (viral kinetics). In addition, blood samples to assess VR (viral rebound) are obtained. To monitor potential cardiac toxicity, cardiac troponin are assessed every day during the treatment period.
End of treatment (EOT) and nadir HCV RNA levels were used to define virologic rebound, continual decline, and plateau response patterns. NS3 protease domain was amplified and population sequenced by nested reverse transcription polymerase chain reaction (RT-PCR). Amplicons were cloned into a novel NS3 phenotyping vector and this plasmid used for clonal sequencing. The HCV RNA levels were determined by Roche COBAS Taqman HCV/HPS test, v2.0. This is a reverse transcriptase PCR method.

[4] = test system: hepatitis C virus (HCV RNA levels), chronic hepatitis C genotype 1; experiment: ITMN-191 monotherapy, 14 days, effect on HCV viral load in patients; format: in vivo; settings: for median reduction in HCV RNA levels at end of treatment (EOT) (Day 14): sodium salt oral
Procedure: The study was designed to provide the plasma pharmacokinetics (PK) of multiple ascending daily oral doses of ITMN-191 monotherapy and to evaluate the viral kinetics (VK) of multiple ascending daily oral doses of ITMN-191 monotherapy in patients, as measured by changes from Baseline in hepatitis C virus ribonucleic acid (HCV RNA) levels. The ITMN-191 was administered in the form of its sodium salt.
In Part A and Part B, up to six cohorts (treatment arms) of 10 patients each were planned. In Part A, up to five cohorts of 10 treatment-naïve patients per cohort were planned to receive multiple ascending doses of study drug. Patients within each of the five cohorts were randomly assigned 8:2 to receive either ITMN-191 or placebo for 14 days. In Part B, one cohort of non-responder (NR) patients (Cohort 6) was planned to receive a single dose level of study drug for 14 days. Patients in Cohort 6 were randomly assigned 8:2 to receive either ITMN-191 (8 patients) or placebo (2 patients).
The treatment period consisted of 14 days of blinded study drug. In Part A, optional Standard of Care (SOC) consisting of PEG-IFN-α plus ribivarin (RBV) therapy was provided to treatment-naïve patients 24 hours after the last dose on Day 14. In Part B, NR patients were not permitted to start any additional HCV therapy before Day 44.
Efficacy was evaluated by log10 reductions in HCV RNA levels and reductions in ALT values using the Efficacy-Evaluable Population, defined as those patients who received at least 90% of prescribed doses of assigned blinded study drug. Three patients in the treatment-naive 200 mg q12h cohort received less than the assigned randomized dose and were excluded from all efficacy analyses. The HCV RNA levels were determined by Roche COBAS Taqman HCV/HPS test, v2.0. This is a reverse transcriptase PCR method.
In Parts A and B, rebound, plateau, and continuous decline of virologic response profiles were defined based on the HCV RNA level at end of treatment (EOT) relative to the nadir HCV RNA level. […] The frequency of rebound for treatment-naïve patients (Part A) was higher in the 100 mg […] treatment arm (4 patients) than in the higher dose treatment arms (2 to 3 patients). The frequency of rebound for NR patients (Part B) was the same (2 patients) as for the treatment-naïve patients in the 100 mg q8h treatment arm. However, there were no statistically significant differences in ITMN-191 AUC, Cmax, or Cτ between rebound, plateau, and continual decline groups. At EOT, every patient classified as experiencing virologic rebound carried NS3 variants in which arginine at amino acid position 155 was replaced, at least in part, by lysine.

[5] = any combination therapy cohort, 14 days
[6] = NR (nonresponder) patients, 300 mg q8h, 14 days
[7] = all ITMN-191 treated patients, Parts A and B, monotherapy 14 days
[8] = treatment-naïve patients, 200 mg q8h, 14 days
[9] = treatment-naïve patients, 200 mg q12h, 14 days

NS3/NS4 complexes, sequence (P27958 1027-1657): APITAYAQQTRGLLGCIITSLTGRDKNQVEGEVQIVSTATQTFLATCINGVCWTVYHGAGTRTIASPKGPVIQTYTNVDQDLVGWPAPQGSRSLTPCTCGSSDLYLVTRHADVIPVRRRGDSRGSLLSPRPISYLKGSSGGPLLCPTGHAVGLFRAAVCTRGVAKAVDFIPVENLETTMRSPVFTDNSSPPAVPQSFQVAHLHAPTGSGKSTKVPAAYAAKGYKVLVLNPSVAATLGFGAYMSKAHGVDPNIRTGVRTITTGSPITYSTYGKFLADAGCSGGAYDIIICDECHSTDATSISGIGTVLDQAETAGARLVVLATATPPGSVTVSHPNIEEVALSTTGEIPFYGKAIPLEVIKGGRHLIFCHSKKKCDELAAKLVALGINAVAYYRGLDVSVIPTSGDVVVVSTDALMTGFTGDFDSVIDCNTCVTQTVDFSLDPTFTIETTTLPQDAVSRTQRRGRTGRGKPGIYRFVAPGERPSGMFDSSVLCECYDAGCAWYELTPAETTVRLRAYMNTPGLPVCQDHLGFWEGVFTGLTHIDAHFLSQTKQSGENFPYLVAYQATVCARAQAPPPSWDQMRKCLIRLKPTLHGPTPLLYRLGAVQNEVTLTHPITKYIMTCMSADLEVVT
NS3/NS4 complexes, sequence (P27958 1658-1711): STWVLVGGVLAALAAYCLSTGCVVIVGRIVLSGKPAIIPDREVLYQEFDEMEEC

Work on `CCn1c(O[C@@H]2C[C@H]3C(=O)N[C@]4(C(=O)NS(=O)(=O)N(C)C)C[C@H]4/C=C\CCCCC[C@H](NC(=O)OC(C)(C)C)C(=O)N3C2)nc2ccccc21` [Compound 1132] yielded an IC50 ([1]; Table 3, read-out: IC50) of under 10 nM and an EC50 [2] of under 10 nM.
With `CC(C)n1c(O[C@@H]2C[C@H]3C(=O)N[C@]4(C(=O)NS(=O)(=O)N(C)C)C[C@H]4/C=C\CCCCC[C@H](NC(=O)OC(C)(C)C)C(=O)N3C2)nc2cc(F)ccc21` [Compound 1133] the IC50 ([1]; Table 3, read-out: IC50) was under 10 nM and the EC50 [2] was under 10 nM.
For `CC(C)n1c(O[C@@H]2C[C@H]3C(=O)N[C@]4(C(=O)NS(=O)(=O)N(C)C)C[C@H]4/C=C\CCCCC[C@H](NC(=O)OC(C)(C)C)C(=O)N3C2)nc2cccc(F)c21` [Compound 1134], the IC50 ([1]; Table 3, read-out: IC50) was under 10 nM and the EC50 [2] was under 10 nM.
For `CC(C)n1c(O[C@@H]2C[C@H]3C(=O)N[C@]4(C(=O)NS(=O)(=O)N(C)C)C[C@H]4/C=C\CCCCC[C@H](NC(=O)OC(C)(C)C)C(=O)N3C2)nc2c(F)cccc21` [Compound 1135], the IC50 ([1]; Table 3, read-out: IC50) was under 10 nM and the EC50 [2] was under 10 nM.
`CC(C)n1c(O[C@@H]2C[C@H]3C(=O)N[C@]4(C(=O)NS(=O)(=O)N(C)C)C[C@H]4/C=C\CCCCC[C@H](NC(=O)OC(C)(C)C)C(=O)N3C2)nc2ccc(F)cc21` [Compound 1136] showed an IC50 ([1]; Table 3, read-out: IC50) of under 10 nM and an EC50 [2] of under 10 nM.
`Cc1ccc2c(c1)nc(O[C@@H]1C[C@H]3C(=O)N[C@]4(C(=O)NS(=O)(=O)N(C)C)C[C@H]4/C=C\CCCCC[C@H](NC(=O)OC(C)(C)C)C(=O)N3C1)n2C(C)C` [Compound 1137] showed an IC50 ([1]; Table 3, read-out: IC50) of under 10 nM and an EC50 [2] of under 10 nM.
`Cc1cccc2nc(O[C@@H]3C[C@H]4C(=O)N[C@]5(C(=O)NS(=O)(=O)N(C)C)C[C@H]5/C=C\CCCCC[C@H](NC(=O)OC(C)(C)C)C(=O)N4C3)n(C(C)C)c12` [Compound 1138] was tested, and the IC50 ([1]; Table 3, read-out: IC50) was under 10 nM and the EC50 [2] was under 10 nM.
`Cc1ccc2nc(O[C@@H]3C[C@H]4C(=O)N[C@]5(C(=O)NS(=O)(=O)N(C)C)C[C@H]5/C=C\CCCCC[C@H](NC(=O)OC(C)(C)C)C(=O)N4C3)n(C(C)C)c2c1` [Compound 1139] gave an IC50 ([1]; Table 3, read-out: IC50) of under 10 nM and an EC50 [2] of under 10 nM.
`Cc1cccc2c1nc(O[C@@H]1C[C@H]3C(=O)N[C@]4(C(=O)NS(=O)(=O)N(C)C)C[C@H]4/C=C\CCCCC[C@H](NC(=O)OC(C)(C)C)C(=O)N3C1)n2C(C)C` [Compound 1140] gave an IC50 ([1]; Table 3, read-out: IC50) of under 10 nM and an EC50 [2] of under 10 nM.
`CN(C)S(=O)(=O)NC(=O)[C@@]12C[C@H]1/C=C\CCCCC[C@H](NC(=O)OC(C)(C)C)C(=O)N1C[C@H](Oc3nc4ccccc4n3C3CCCC3)C[C@H]1C(=O)N2` [Compound 1141] gave an IC50 ([1]; Table 3, read-out: IC50) of under 10 nM and an EC50 [2] of under 10 nM.
`CC(C)n1c(O[C@@H]2C[C@H]3C(=O)N[C@]4(C(=O)NS(=O)(=O)C5CC5)C[C@H]4/C=C\CCCCC[C@H](NC(=O)OC(C)(C)C)C(=O)N3C2)nc2ccccc21` [Compound 1142] was tested, and the IC50 ([1]; Table 3, read-out: IC50) was under 10 nM and the EC50 [2] was under 10 nM.
`CN(C)S(=O)(=O)NC(=O)[C@@]12C[C@H]1/C=C\CCCCC[C@H](NC(=O)OC(C)(C)C)C(=O)N1C[C@H](Oc3nc4ccccc4n3COCC[Si](C)(C)C)C[C@H]1C(=O)N2` [Compound 1143] was tested, and the IC50 ([1]; IC50, Table 3) was under 10 nM and the EC50 [2] was over 100 nM.
For `CN(C)S(=O)(=O)NC(=O)[C@@]12C[C@H]1/C=C\CCCCC[C@H](NC(=O)OC(C)(C)C)C(=O)N1C[C@H](Oc3nc4ccccc4[nH]3)C[C@H]1C(=O)N2` [Compound 1144], the IC50 ([1]; Table 3, read-out: IC50) was under 10 nM and the EC50 [2] was over 100 nM.
In the case of `CC(C)(C)OC(=O)N[C@H]1CCCCC/C=C\[C@@H]2C[C@@]2(C(=O)NS(=O)(=O)C2CC2)NC(=O)[C@@H]2C[C@@H](OC(=O)N3Cc4cccc(F)c4C3)CN2C1=O` [ITMN-191], the “HCV RNA (<43 IU/mL) (%)” value ([3]; 100 mg q8h (300 mg) and SOC) is reported as 75%, the “Median Change Log10 (IU/mL) HCV RNA at EOT” value (shortened to “Median Change Log10”) ([3]; 100 mg q8h (300 mg) in combination with SOC, 14 days) is reported as −5.5 Log10 (IU/mL) and the “HCV RNA (<43 IU/mL) (%)” value ([3]; 200 mg q8h (600 mg) and SOC) is reported as 88%. For the same compound, the “Median Change Log10” value ([3]; 200 mg q8h (600 mg) in combination with SOC, 14 days) was −5.7 Log10 (IU/mL), the “Median Change Log10” value ([3]; 300 mg q8h (900 mg) in combination with SOC, 14 days) was −5.6 Log10 (IU/mL) and the “Median Change Log10” value ([3]; 400 mg q12h (800 mg) in combination with SOC, 14 days) was −4.7 Log10 (IU/mL). The “Median Change Log10” value ([3]; 600 mg q12h (1200 mg) in combination with SOC, 14 days) was −5.4 Log10 (IU/mL), the “Median Change Log10” value ([3]; 900 mg q12h (1800 mg) in combination with SOC, 14 days) was −5.5 Log10 (IU/mL) and the “patients with HCV RNA below the limit of quantification (<25 IU/mL)” value ([3]; all doses and intervals (32 of 45 patients), combination with SOC, 14 days) was 71%. For the same compound, the “patients with HCV RNA levels below 9.3 IU/mL” value [3, 5] was “at least 13%”, the “patients with HCV RNA levels below 25 IU/mL” value [3, 5] was “at least 57%” and the “median change in HCV RNA from baseline” value ([3]; best performing q8h cohort) was −5.7 log. The “median change in HCV RNA from baseline” value ([3]; best performing q12h cohort) was −5.5 log, the “median change in HCV RNA from baseline” value ([3]; five of the six cohorts) was “exceeded 5 logs” and the “median ALT decline from Baseline at EOT” value [4, 6] was −34.5 U/L. The “median maximum reduction in HCV RNA levels” value (shortened to “median maximum reduction”) [4, 6] was −2.93 log10 IU/mL, the “median reduction in HCV RNA at EOT” value [4, 6] was −2.46 log10 IU/mL and the frequency of rebound ([4]; NR patients (Part B)) was 2 patients. The “patients experiencing continual decline in HCV RNA level” value [4, 7] was 14/40, the patients experiencing plateau [4, 7] was 12/40 and the “median maximum post-Baseline change in HCV RNA” value ([4]; single NR cohort (Part B), 300 mg q12h dose as printed in the conclusions) was −2.93 log10 IU/mL. The frequency of rebound ([4]; treatment-naïve patients, 100 mg q2h treatment arm) was 4 patients, the frequency of rebound ([4]; treatment-naïve patients, 100 mg q8h treatment arm) was 2 patients and the “median EOT reduction of ALT” value [4, 8] was −37.5 U/L. For the same compound, the “median maximum reduction” value [4, 8] was −3.90 log10 IU/mL, the “median reduction in HCV RNA levels at end of treatment (EOT) (Day 14)” value [4, 8] was −3.76 log10 IU/mL and the “median maximum reduction” value [4, 9] was −3.17 log10 IU/mL. For the same compound, the “median reduction in HCV RNA levels at end of treatment (EOT) (Day 14)” value [4, 9] was −3.12 log10 IU/mL.
